This note sets out measurements from the NIST ThermoML archive (doi:10.1021/acs.jced.8b00536).

Numbers after ± are expanded uncertainties.

The nature of data set [1]: Molar enthalpy of transition or fusion. The note with it: Crystal; DSC.
The conditions of data set [2]: Crystal; DSC.

In the case of `c1ccc2cc3cc4ccccc4cc3cc2c1` [2,3-benzanthracene], the “Molar enthalpy of transition or fusion” value in data set [1] is 8.94 ± 0.908 kcal/mol. Besides, the Triple point temperature in data set [2] stood at 623.75 ± 1.2 K.

With `c1ccc(N(c2ccc(-c3ccc(N(c4ccccc4)c4cccc5ccccc45)cc3)cc2)c2cccc3ccccc23)cc1` [N,N'-di(1-naphthyl)-N,N'-diphenyl benzidine], the “Molar enthalpy of transition or fusion” value in data set [1] stood at 14.1 ± 1.43 kcal/mol. The Triple point temperature in data set [2] was found to be 551.75 ± 1.2 K.
